Pest or weed control data for 68 compounds are collected here from patent publication US7745483B2, “2-Halofuryl-thienyl-3-carboxamides” (Bayer CropScience AG, priority 2004, dated 2010).

Common to all, as to assay type: in vivo
In one test the test system is Sphaerotheca fuliginea. The test is described as follows: Sphaerotheca test (cucumber)/protective. The following applies: Podosphaera fuliginea, 168 h, protective, application rate 100 g/ha, evaluation 7 days after inoculation, read-out: Efficacy in %. The method, then: (§1) [table] To produce a suitable preparation of active compound, one part by weight of active compound is mixed with the stated amounts of solvent and emulsifier, and the concentrate is diluted with water to the desired concentration. To test for protective activity, young plants are sprayed with the preparation of active compound at the stated application rate. After the spray coating has dried on, the plants are inoculated with an aqueous spore suspension of Sphaerotheca fuliginea. The plants are then placed in a greenhouse at about 23° C. and a relative atmospheric humidity of about 70%. Evaluation is carried out 7 days after the inoculation. 0% means an efficacy which corresponds to that of the control, whereas an efficacy of 100% means that no infection is observed.

A further test concerns Venturia inaequalis. The test can be described thus: Venturia test (apple)/protective. To be noted: 240 h, protective, application rate 100 g/ha, evaluation 10 days after inoculation, read-out: Efficacy in %. The procedure:
as §1, with “amount” for “amounts”, “conidia” for “spore”, “the apple scab pathogen Venturia inaequalis and then remain in an incubation cabin at about 20° C. and 100% relative atmospheric humidity for 1 day.” for “Sphaerotheca fuliginea.”, “21°” for “23°”, “90%.” for “70%.”, “10” for “7”

The next test deals with Botrytis cinerea. The test is described as follows: Botrytis test (bean)/protective. To be noted: 48 h, protective, application rate 500 g/ha, evaluation 2 days after inoculation, read-out: Efficacy in %. The procedure:
[table] To produce a suitable preparation of active compound, 1 part by weight of active compound was mixed with the stated amounts of solvent and emulsifier, and the concentrate was diluted with water to the desired concentration. To test for protective activity, young plants are sprayed with the preparation of active compound at the stated application rate. After the spray coating has dried on, 2 small pieces of agar colonized by Botrytis cinerea are placed onto each leaf. The inoculated plants are placed in a dark chamber at about 20° C. and 100% relative atmospheric humidity. The size of the infected areas on the leaves is evaluated 2 days after the inoculation. 0% means an efficacy which corresponds to that of the control, whereas an efficacy of 100% means that no infection is observed.

Turning to `O=C(Nc1ccccc1-c1ccc(Cl)cc1)c1ccsc1I` [drawing 168], in the test with Sphaerotheca fuliginea, the pest or weed control at 100 g/ha is 95%. Still for that read-out and setting: the value for `CC(CC(C)(C)C)c1ccccc1NC(=O)c1ccoc1I` (centres unmarked) [drawing 153] was 98%. On to `O=C(Nc1ccccc1-c1ccc(F)c(Cl)c1)c1ccsc1I` [drawing 220], for which the pest or weed control at 100 g/ha in the test with Venturia inaequalis came to 100%. On the same count and under the same terms, the value for `CC1CC(C)(C)c2cccc(NC(=O)c3ccsc3I)c21` (centres unmarked) [drawing 211] was 100%.

In the case of `O=C(Nc1ccccc1-c1ccc(Br)cc1)c1ccoc1I` [drawing 165], in the test on Sphaerotheca fuliginea, the pest or weed control at 100 g/ha came out at 100%.

For `O=C(Nc1ccccc1-c1ccc(F)c(Cl)c1)c1ccsc1I` [drawing 183], the pest or weed control at 100 g/ha with Sphaerotheca fuliginea came to 100%. Same read-out and setting: the value for `O=C(Nc1ccncc1-c1ccc(Cl)c(Cl)c1)c1ccsc1I` [drawing 156] was 100%; that for `O=C(Nc1ccccc1-c1ccc(Cl)c(F)c1)c1ccsc1I` [drawing 170] was 98%; that for `O=C(Nc1ccccc1-c1ccc(Cl)c(F)c1)c1ccsc1Br` [drawing 182] was 100%. For the compound `O=C(Nc1ccccc1-c1ccc(Cl)c(Cl)c1)c1ccsc1Br` [drawing 218], the pest or weed control at 100 g/ha with Venturia inaequalis worked out at 100%. `C[Si](C)(C)CCc1sccc1NC(=O)c1ccsc1I` [drawing 184]: the pest or weed control at 100 g/ha in the test on Sphaerotheca fuliginea stood at 100%.

Take `O=C(Nc1ccccc1-c1ccc(Br)cc1Cl)c1ccsc1I` [drawing 157]: in the test on Sphaerotheca fuliginea, the pest or weed control at 100 g/ha was 100%.

Turning to `Cc1ccc(-c2ccccc2NC(=O)c2ccsc2I)cc1F` [drawing 210], the pest or weed control at 100 g/ha in the test on Venturia inaequalis was 100%.

With `O=C(Nc1ccccc1-c1cccc(Cl)c1F)c1ccsc1I` [drawing 161], the pest or weed control at 100 g/ha in the test with Sphaerotheca fuliginea worked out at 100%. Consider `O=C(Nc1ccc(F)cc1-c1cccc(Cl)c1F)c1ccsc1I` [drawing 196], for which, in the test with Venturia inaequalis, the pest or weed control at 100 g/ha amounted to 100%.

With `O=C(Nc1ccccc1-c1ccc(C(F)(F)F)cc1)c1ccsc1I` [drawing 208], the pest or weed control at 100 g/ha in the test with Venturia inaequalis is 99%. In the case of `CC(C[Si](C)(C)C)c1ccccc1NC(=O)c1ccoc1I` (centres unmarked) [drawing 171], the pest or weed control at 100 g/ha in the test on Sphaerotheca fuliginea was determined as 100%. For `CC(C)CC(C)c1cc(F)ccc1NC(=O)c1ccsc1I` (centres unmarked) [drawing 212], the pest or weed control at 100 g/ha in the test on Venturia inaequalis worked out at 100%.

Turning to `O=C(Nc1ccc(F)cc1-c1ccc(Cl)c(Cl)c1)c1ccsc1I` [drawing 209], the pest or weed control at 100 g/ha in the test on Venturia inaequalis was determined as 100%. In the case of `O=C(Nc1ccc(F)cc1-c1cccc(Cl)c1F)c1ccsc1I` [drawing 162], in the test with Sphaerotheca fuliginea, the pest or weed control at 100 g/ha was 100%. As for `CC(C)CC(C)c1sccc1NC(=O)c1ccsc1I` (centres unmarked) [drawing 214], in the test with Venturia inaequalis, the pest or weed control at 100 g/ha is 100%. On to `O=C(Nc1ccccc1-c1ccc(Cl)c(F)c1)c1ccoc1I` [drawing 167], for which the pest or weed control at 100 g/ha in the test with Sphaerotheca fuliginea was determined as 98%. Consider `O=C(Nc1ccccc1-c1ccc(Cl)c(Cl)c1)c1ccoc1I` [drawing 200], for which the pest or weed control at 100 g/ha in the test with Venturia inaequalis is 99%. Same read-out and setting: in the case of `O=C(Nc1ccccc1-c1ccc(Cl)cc1)c1ccoc1I` [drawing 198] it was 100%. As to `CC(CC(C)(C)C)c1ccccc1NC(=O)c1ccsc1I` (centres unmarked) [drawing 154], the pest or weed control at 100 g/ha with Sphaerotheca fuliginea amounted to 100%. For `O=C(Nc1ccccc1-c1ccc(Br)c(F)c1)c1ccsc1I` [drawing 192], the pest or weed control at 100 g/ha with Venturia inaequalis stood at 100%. Take `O=C(Nc1ccccc1-c1ccc(Cl)cc1)c1ccsc1Br` [drawing 180]: in the test with Sphaerotheca fuliginea, the pest or weed control at 100 g/ha was found to be 100%.

Regarding `O=C(Nc1ccccc1-c1cccc(Cl)c1Cl)c1ccsc1I` [drawing 194], the pest or weed control at 100 g/ha in the test with Venturia inaequalis came to 98%. Same read-out and setting: the value for `CC(CC(C)(C)C)c1ccccc1NC(=O)c1ccoc1I` (centres unmarked) [drawing 186] was 94%. For the compound `CO/N=C/c1ccc(-c2ccccc2NC(=O)c2ccsc2I)cc1F` [drawing 176], in the test on Sphaerotheca fuliginea, the pest or weed control at 100 g/ha amounted to 98%.

On to `O=C(Nc1ccccc1-c1cccc(Cl)c1F)c1ccsc1I` [drawing 195], for which, in the test on Venturia inaequalis, the pest or weed control at 100 g/ha stood at 89%.

Consider `CC(C)CC(C)c1sccc1NC(=O)c1ccsc1I` (centres unmarked) [drawing 177], for which the pest or weed control at 100 g/ha in the test with Sphaerotheca fuliginea stood at 92%. In the case of `O=C(Nc1ccccc1-c1ccc(Br)cc1)c1ccoc1I` [drawing 199], in the test on Venturia inaequalis, the pest or weed control at 100 g/ha came out at 100%. Still for that read-out and setting: the value for `C[Si](C)(C)CCc1sccc1NC(=O)c1ccsc1I` [drawing 221] was 100%. For `O=C(Nc1ccccc1-c1ccc(Br)c(Cl)c1)c1ccsc1I` [drawing 159], the pest or weed control at 100 g/ha in the test with Sphaerotheca fuliginea turned out to be 100%.

With `O=C(Nc1ccccc1-c1ccc(Br)c(Cl)c1)c1ccsc1I` [drawing 193], the pest or weed control at 100 g/ha with Venturia inaequalis was 100%. On the same count and under the same terms, in the case of `O=C(Nc1ccccc1-c1ccc(C(F)(F)F)cc1Cl)c1ccsc1I` [drawing 189] it was 97%; in that of `O=C(Nc1ccccc1-c1ccc(Cl)c(F)c1)c1ccsc1Br` [drawing 219], 100%. Consider `CC(C)CC(C)c1ccccc1NC(=O)c1ccsc1I` (centres unmarked) [drawing 185], for which the pest or weed control at 100 g/ha in the test with Venturia inaequalis came to 100%. Consider `CC(C)CC(C)c1ccccc1NC(=O)c1ccsc1I` (centres unmarked) [drawing 152], for which the pest or weed control at 100 g/ha in the test with Sphaerotheca fuliginea was 98%.

As for `CC(C)CC(C)c1ccccc1NC(=O)c1ccsc1Br` (centres unmarked) [drawing 215], the pest or weed control at 100 g/ha in the test with Venturia inaequalis was 100%. For the compound `CC(CC(C)(C)C)c1ccccc1NC(=O)c1ccsc1Br` (centres unmarked) [drawing 179], the pest or weed control at 100 g/ha in the test with Sphaerotheca fuliginea is 97%. On the same count and under the same terms, in the case of `CC(C)(C)CCc1cc(F)ccc1NC(=O)c1ccsc1I` [drawing 163] it was 100%; in that of `O=C(Nc1ccccc1-c1ccc(Br)c(F)c1)c1ccsc1I` [drawing 158], 100%. Same read-out and setting: the value for `O=C(Nc1ccccc1-c1ccc(C(F)(F)F)cc1)c1ccsc1I` [drawing 172] was 93%.

For the compound `CC(C)CC(C)c1cc(F)ccc1NC(=O)c1ccsc1I` (centres unmarked) [drawing 175], the pest or weed control at 100 g/ha in the test with Sphaerotheca fuliginea came out at 97%. `O=C(Nc1ccncc1-c1ccc(Cl)c(Cl)c1)c1ccsc1I` [drawing 190]: the pest or weed control at 100 g/ha in the test on Venturia inaequalis came out at 98%.

In the case of `O=C(Nc1ccc(F)cc1-c1ccc(Cl)c(Cl)c1)c1ccsc1I` [drawing 173], in the test on Sphaerotheca fuliginea, the pest or weed control at 100 g/ha came out at 100%. For `CC(CC(C)(C)C)c1ccccc1NC(=O)c1ccsc1Br` (centres unmarked) [drawing 216], the pest or weed control at 100 g/ha with Venturia inaequalis was found to be 98%. On the same count and under the same terms, the value for `O=C(Nc1ccccc1-c1ccc(Cl)c(F)c1)c1ccoc1I` [drawing 201] was 100%.

As to `CC(C)(C)CCc1cc(F)ccc1NC(=O)c1ccsc1I` [drawing 197], in the test on Venturia inaequalis, the pest or weed control at 100 g/ha worked out at 100%. The same measure, in the same setting: in the case of `O=C(Nc1ccccc1-c1ccc(Cl)cc1)c1ccsc1Br` [drawing 217] it was 100%. For `O=C(Nc1ccccc1-c1ccc(Cl)cc1)c1ccsc1I` [drawing 202], the pest or weed control at 100 g/ha in the test on Venturia inaequalis was determined as 100%. Consider `O=C(Nc1ccccc1-c1ccc(Cl)c(Cl)c1)c1ccsc1I` [drawing 204], for which the pest or weed control at 100 g/ha in the test on Venturia inaequalis is 100%. Same read-out and setting: in the case of `CC(CC(C)(C)C)c1ccccc1NC(=O)c1ccsc1I` (centres unmarked) [drawing 187] it was 100%.

On to `C[Si](C)(C)CCc1ccccc1NC(=O)c1ccsc1I` [drawing 188], for which, in the test on Venturia inaequalis, the pest or weed control at 100 g/ha came to 100%. Still for that read-out and setting: in the case of `CO/N=C/c1ccc(-c2ccccc2NC(=O)c2ccsc2I)cc1F` [drawing 213] it was 100%. As for `O=C(Nc1ccccc1-c1ccc(Br)cc1)c1ccsc1I` [drawing 203], the pest or weed control at 100 g/ha with Venturia inaequalis came to 91%. Take `O=C(Nc1ccccc1-c1ccc(C(F)(F)F)cc1Cl)c1ccsc1I` [drawing 227]: the pest or weed control at 500 g/ha with Botrytis cinerea turned out to be 100%.

Turning to `CC(C[Si](C)(C)C)c1ccccc1NC(=O)c1ccsc1I` (centres unmarked) [drawing 207], the pest or weed control at 100 g/ha in the test with Venturia inaequalis came out at 100%.

As to `O=C(Nc1ccccc1-c1ccc(Br)cc1Cl)c1ccsc1I` [drawing 191], in the test on Venturia inaequalis, the pest or weed control at 100 g/ha came to 100%. Consider `O=C(Nc1ccccc1-c1ccc(Br)c(Cl)c1)c1ccsc1I` [drawing 231], for which the pest or weed control at 500 g/ha in the test with Botrytis cinerea turned out to be 100%.

For `O=C(Nc1ccccc1-c1ccc(Cl)c(F)c1)c1ccsc1Br` [drawing 257], the pest or weed control at 500 g/ha with Botrytis cinerea was 100%.

As for `O=C(Nc1ccccc1-c1ccc(Cl)c(Cl)c1)c1ccsc1Br` [drawing 256], in the test with Botrytis cinerea, the pest or weed control at 500 g/ha was found to be 100%.

`CC(C[Si](C)(C)C)c1ccccc1NC(=O)c1ccoc1I` (centres unmarked) [drawing 206]: the pest or weed control at 100 g/ha in the test with Venturia inaequalis is 99%. For `O=C(Nc1ccccc1-c1ccc(F)c(Cl)c1)c1ccsc1I` [drawing 258], the pest or weed control at 500 g/ha in the test with Botrytis cinerea was found to be 99%. For `O=C(Nc1ccccc1-c1ccc(Cl)c(F)c1)c1ccsc1I` [drawing 205], the pest or weed control at 100 g/ha in the test on Venturia inaequalis turned out to be 100%. With `CC(C)CC(C)c1ccccc1NC(=O)c1ccsc1I` (centres unmarked) [drawing 222], in the test on Botrytis cinerea, the pest or weed control at 500 g/ha is 100%.
